We go through one compound from patent publication US20230212222A1 (ANYGEN CO., LTD., priority 2020, published 2023).

The test system of the assay is C57BL6/J mice with high-fat feed (DIO). In words: glucose tolerance test in mouse model of obesity disease (DIO). In kind it is in vivo. To be noted: FIG. 89. As for the experimental part:
In addition, the glucose tolerance level and insulin level according to HKFY-34 treatment in a mouse model of obesity disease were analyzed (FIGS. 89 and 90).
Specifically, in the glucose tolerance level and insulin level analysis experiment, the experiment was performed by changing the mouse model of diabetes mellitus disease into a mouse model of obesity disease (DIO), in which obesity was induced by providing male C57BL6/J mice (6 to 7-week-old, Central Lab. Animal Inc.) with a high-fat feed (60% fat chow) for 5-6 weeks.

`CCCCCCCC(=O)NCCCC[C@H](NC(=O)[C@@H](N)Cc1cn(C(c2ccccc2)c2ccccc2)cn1)C(=O)N[C@H](Cc1ccc(C)cc1)C(=O)N[C@@H](Cc1ccc(O)cc1)C(=O)O` [HKFY-34, ((R)-2-((S)-2-((S)-2-amino-3-(1-benzhydryl-1H-imidazol-4-yl)propanamido)-6-octanamidohexanamido)-3-(p-tolyl)propanoyl)-L-tyrosine]: the glucose tolerance result is listed as “glucose tolerance in a concentration dependent manner”.
